Test results as given in ChEMBL document CHEMBL4813945, “Discovery and development of novel pyrimidine and pyrazolo/thieno-fused pyrimidine derivatives as potent and orally active inducible nitric oxide synthase dimerization inhibitor with efficacy for arthritis” (Eur J Med Chem, 2021).
The source made the active and inactive calls. No cut-off for these calls is given here.

Legend:
L02 = test: Antiinflammatory activity against human L02 assessed as inhibition of LPS-induced NO production preincubated for 1 hrs followed by LPS stimulation and measured after 24 hrs by Griess assay relative to control; type: functional, cell-based
RAW264.7 = test: Inhibition of LPS-induced NO release in mouse RAW264.7 cells preincubated for 1 hrs followed by LPS stimulation and measured after 24 hrs by Griess reagent based assay; type: functional, cell-based
[1] = biological target: T1, Nitric oxide synthase, inducible (Mus musculus, UniProt P29477); test: Inhibition of LPS induced NO-dependent iNOS activity in mouse RAW 264.7 cells preincubated for 1 hrs followed by LPS stimulation and measured after 24 hrs by Griess reagent based assay; type: cell-based, RAW264.7
T1 sequence (P29477 whole entry): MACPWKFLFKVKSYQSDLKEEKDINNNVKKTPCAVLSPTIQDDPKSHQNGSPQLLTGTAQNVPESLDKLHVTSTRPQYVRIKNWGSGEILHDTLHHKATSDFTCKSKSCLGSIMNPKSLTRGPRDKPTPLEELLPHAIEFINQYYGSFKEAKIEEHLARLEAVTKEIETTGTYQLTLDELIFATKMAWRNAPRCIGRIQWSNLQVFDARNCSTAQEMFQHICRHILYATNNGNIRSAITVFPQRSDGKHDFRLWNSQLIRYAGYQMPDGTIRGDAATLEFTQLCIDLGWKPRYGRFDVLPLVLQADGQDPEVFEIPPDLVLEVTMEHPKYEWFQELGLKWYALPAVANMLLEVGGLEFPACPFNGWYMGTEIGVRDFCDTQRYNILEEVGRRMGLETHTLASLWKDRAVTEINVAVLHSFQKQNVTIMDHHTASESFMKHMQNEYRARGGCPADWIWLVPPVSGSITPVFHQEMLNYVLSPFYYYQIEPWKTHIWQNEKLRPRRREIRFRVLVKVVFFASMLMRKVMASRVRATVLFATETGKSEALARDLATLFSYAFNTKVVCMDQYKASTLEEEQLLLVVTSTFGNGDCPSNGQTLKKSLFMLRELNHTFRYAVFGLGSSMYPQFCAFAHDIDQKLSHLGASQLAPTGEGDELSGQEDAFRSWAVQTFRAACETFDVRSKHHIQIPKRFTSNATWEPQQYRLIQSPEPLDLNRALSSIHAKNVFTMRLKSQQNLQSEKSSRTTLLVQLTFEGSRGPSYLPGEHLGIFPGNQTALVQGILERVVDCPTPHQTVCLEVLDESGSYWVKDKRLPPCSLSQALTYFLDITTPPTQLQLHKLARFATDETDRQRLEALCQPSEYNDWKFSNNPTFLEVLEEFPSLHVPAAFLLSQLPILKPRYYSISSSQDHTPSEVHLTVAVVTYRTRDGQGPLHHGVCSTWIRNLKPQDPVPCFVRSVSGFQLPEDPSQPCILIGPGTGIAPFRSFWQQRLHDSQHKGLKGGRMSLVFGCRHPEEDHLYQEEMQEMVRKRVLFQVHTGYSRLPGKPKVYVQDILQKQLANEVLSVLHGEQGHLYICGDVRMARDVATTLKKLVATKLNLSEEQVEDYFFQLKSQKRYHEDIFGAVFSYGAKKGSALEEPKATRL

[2] = biological target: T2, Nitric oxide synthase, inducible (Mus musculus) (UniProt P29477); test: Inhibition of iNOS dimer formation in LPS-induced mouse RAW264.7 cells at 0.5 to 2 uM preincubated for 1 hrs followed by LPS-stimulation and measured after 24 hrs by Westernblot analysis; settings: dose 0.5-2 µM, time 25.0 hrs
T2 sequence (whole entry): T1 sequence (P29477 whole entry)

Rattus norvegicus [3] = test: Antiinflammatory activity in complete freund's adjuvant-induced male Sprague-Dawley rat model of arthritis assessed as reduction in ankle joint swelling at 40 to 80 mg/kg, IG administered once daily for 2 to 4 weeks; type: functional, organism-based; settings: dose 40-80 mg/kg, time 2-4 weeks
Rattus norvegicus [4] = test: Antiinflammatory activity in complete freund's adjuvant-induced male Sprague-Dawley rat model of arthritis assessed as improved cartilage destruction at 80 mg/kg, IG after 4 weeks by H and E staining based histopathological analysis; type: functional, organism-based
[5] = Metabolic stability in human hepatocytes assessed as half life measured upto 120 mins by LC-MS/MS analysis; type: ADME, cell-based, Hepatocyte
[6] = Metabolic stability in rat hepatocytes assessed as parent compound remaining after 120 mins by LC-MS/MS analysis; type: ADME, cell-based, Hepatocyte; settings: read-out: Stabilty
Cytochrome P450 2C19 = Cytochrome P450 2C19 (Homo sapiens, UniProt P33261); test: Inhibition of CYP2C19 in human liver microsomes using Mephenytoin as substrate measured after 20 mins by LC-MS/MS analysis; type: ADME
Chain of Cytochrome P450 2C19 (P33261 whole entry): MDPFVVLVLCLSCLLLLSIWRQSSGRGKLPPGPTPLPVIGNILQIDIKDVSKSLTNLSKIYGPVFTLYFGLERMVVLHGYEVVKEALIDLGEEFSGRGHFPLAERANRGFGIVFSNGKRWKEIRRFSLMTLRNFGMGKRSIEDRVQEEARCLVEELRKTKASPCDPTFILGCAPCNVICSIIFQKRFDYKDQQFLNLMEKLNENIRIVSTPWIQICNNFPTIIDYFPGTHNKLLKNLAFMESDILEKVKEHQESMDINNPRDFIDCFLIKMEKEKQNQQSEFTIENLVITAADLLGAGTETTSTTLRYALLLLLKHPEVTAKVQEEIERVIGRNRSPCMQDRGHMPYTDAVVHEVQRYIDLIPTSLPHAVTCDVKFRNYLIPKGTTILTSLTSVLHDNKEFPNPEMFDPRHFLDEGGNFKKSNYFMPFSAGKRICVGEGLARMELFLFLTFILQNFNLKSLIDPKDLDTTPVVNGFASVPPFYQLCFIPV

Cytochrome P450 2D6 = Cytochrome P450 2D6 (Homo sapiens, UniProt P10635); test: Inhibition of CYP2D6 in human liver microsomes using Dextromethorphan as substrate measured after 20 mins by LC-MS/MS analysis; type: ADME
Chain of Cytochrome P450 2D6 (P10635 whole entry): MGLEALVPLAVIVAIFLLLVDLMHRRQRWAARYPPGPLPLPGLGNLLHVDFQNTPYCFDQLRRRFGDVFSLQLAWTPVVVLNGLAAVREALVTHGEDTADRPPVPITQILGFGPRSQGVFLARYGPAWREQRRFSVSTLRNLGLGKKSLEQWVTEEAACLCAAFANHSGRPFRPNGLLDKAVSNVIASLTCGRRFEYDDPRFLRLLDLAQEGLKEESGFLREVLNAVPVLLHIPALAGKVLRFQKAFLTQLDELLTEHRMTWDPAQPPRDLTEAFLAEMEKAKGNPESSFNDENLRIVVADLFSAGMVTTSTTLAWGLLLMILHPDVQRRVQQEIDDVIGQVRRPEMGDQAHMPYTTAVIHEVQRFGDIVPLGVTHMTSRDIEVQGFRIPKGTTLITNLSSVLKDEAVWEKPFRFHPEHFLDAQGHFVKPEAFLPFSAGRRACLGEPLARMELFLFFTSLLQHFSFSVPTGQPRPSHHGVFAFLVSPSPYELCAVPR

CYP3A4/5 = CYP3A4/5 (Homo sapiens, UniProt P08684+P20815); test: Inhibition of CYP3A4/5 in human liver microsomes using Midazolam as substrate measured after 20 mins by LC-MS/MS analysis; type: ADME; settings: probe Midazolam
[7] = Tmax in Sprague-Dawley rat at 10 mg/kg, po measured after 0.25 to 24 hrs by LC-MS/MS analysis; type: ADME, organism-based; settings: in vivo, time 0.25-24 hrs
[8] = AUC (0 to infinity) in Sprague-Dawley rat at 10 mg/kg, po measured by LC-MS analysis; type: ADME, organism-based; design: time infinity, route oral, dose 10 mg/kg; settings: in vivo
[9] = Cmax in Sprague-Dawley rat at 10 mg/kg, po measured after 0.25 to 24 hrs by LC-MS/MS analysis; type: ADME, organism-based; design: route oral, time lower 0.25 hrs, dose 10 mg/kg, time upper 24 hrs; settings: in vivo
[10] = Volume of distribution at steady state in Sprague-Dawley rat at 1 mg/kg, iv measured after 0.08 to 24 hrs by LC-MS/MS analysis; type: ADME, organism-based; settings: in vivo, time 0.08-24 hrs, read-out: Vdss
[11] = Plasma clearance in Sprague-Dawley rat at 1 mg/kg, iv measured after 0.08 to 24 hrs hrs by LC/MS/MS analysis; type: ADME, organism-based; settings: time 0.08-24 hrs
[12] = Oral bioavailability in Sprague-Dawley rat at 10 mg/kg measured after 0.25 to 24 hrs hrs by LC-MS/MS analysis; type: ADME, organism-based; settings: in vivo, time 0.25-24 hrs
[13] = Subacute toxicity in rat assessed as change in body weight at 100 to 500 mg/kg, IG administered every other day for 14 days and measured every 2 days; type: organism-based; settings: in vivo, po, 336 h, dose 100-500 mg/kg, time 14 day
[14] = Subacute toxicity in rat assessed as liver damage at 100 to 500 mg/kg, IG administered every other day for 14 days and measured every 2 days by H and E staining; type: organism-based; settings: in vivo, po, 336 h, dose 100-500 mg/kg, time 14 day
[15] = Acute toxicity in rat assessed as anorexia at 2000 mg/kg, IG administered as single dose; type: organism-based; settings: in vivo, po
[16] = Subacute toxicity in rat assessed as heart damage at 100 to 500 mg/kg, IG administered every other day for 14 days and measured every 2 days by H and E staining; type: organism-based; settings: in vivo, po, 336 h, dose 100-500 mg/kg, time 14 day
[17] = Subacute toxicity in rat assessed as drowsiness at 100 to 500 mg/kg, IG administered every other day for 14 days and measured every 2 days; type: organism-based; settings: in vivo, po, 336 h, dose 100-500 mg/kg, time 14 day

## COc1cc(/C=C/c2nc(NCc3ccc(C)cc3)c3sccc3n2)cc(OC)c1OC
L02
  IC50: > 1000 µM
RAW264.7
  IC50: 1.86 µM
[1]
  IC50: 0.96 µM
[2]
  inhibition: Active
Rattus norvegicus [3]
  Activity: Active
Rattus norvegicus [4]
  Activity: Active
[5]
  half-life: 5.44 h
[6]
  remaining at 2 h: 22.2%
Cytochrome P450 2C19
  IC50: 7.76 µM
Cytochrome P450 2D6
  IC50: > 50 µM
CYP3A4/5
  IC50 at 20 min: > 50 µM
[7]
  Tmax: 3.33 h
[8]
  AUC: 1152 ng·h/mL
[9]
  Cmax: 131 ng/mL
[10]
  Vd: 11.3 L/kg
[11]
  clearance: 42.9 mL/min/kg
[12]
  bioavailability: 29.9%
[13]
  Activity: Toxic
[14]
  Activity: Non-Toxic
[15]
  Activity: Non-Toxic
[16]
  Activity: Non-Toxic
[17]
  Activity: Non-Toxic
